This is an account of results in patent US4013663A, “Isoquinoline compounds” (priority 1974, dated 1977).

In data set [1] the test system is β-receptors of the blood vessel system. In words: β-receptor blocking activity on the blood vessel system (blood pressure measurement in the same animal). The following applies: ratio of effective doses from Table 1, given as 1: x. The data set is classed as in vivo, guinea pig. As to the method:
(§1) The particular β-receptor blocking activity on the heart in comparison to that on the blood vessel system was measured by the taking of an EKG or by measurement of the blood pressure in the same animal (guinea pigs) [cf. J. R. C. Baird et al., J. Pharm. Pharmac. […] For investigation of broncho-constrictor activity, the inhibition of the isoprenalin effect on the bronchial system of the guinea pig is employed [cf. H. Konzett et al., Arch. exp. Path. Pharmak.

Data set [2] relates to β-receptors of the bronchial system. In words: inhibition of the isoprenalin effect on the bronchial system. The data set is classed as in vivo, guinea pig. The following applies: for dosage relationships in comparison with the comparison compound: Table 2, versus F; for influence of heart-active doses on the bronchial system: at heart-active doses; for Heart: Bronchial System (activity relationship, heart = 1): ratio of effective doses from Table 1, given as 1: x. As to the method: as §1

For the next data set, the system named is albino mice. In words: in vivo. The following applies: Table 3. As to the method: (§2) The investigations on toxicity were carried out by intravenous administration to albino mice.
The next data set in a line: in vivo. The conditions noted are these: mouse, in vivo, iv. As to the method: as §2

As to `CC(=O)N1CCc2cc(OCC(O)CNC(C)C)ccc2C1` (stereo not shown) [Substance A, 2-acetyl-1,2,3,4-tetrahydro-6-(2-hydroxy-3-isopropylamino-propoxy)-isoquinoline], the “Heart: Blood vessels (activity relationship, heart = 1)” value (“Heart: Blood vessels” for short) in data set [1] is listed as 6.2. For the same compound, in data set [2], the “dosage relationships in comparison with the comparison compound” value is listed as “essentially more favorable than for the comparison compound”; the “influence of heart-active doses on the bronchial system” value is recorded as “does not lead to a negative influence on the bronchial system”; the “Heart: Bronchial System (activity relationship, heart = 1)” value (shortened to “Heart: Bronchial System”) was determined as 5.5.

Take `COc1cc2c(cc1OCC(O)CNC(C)C)CCN(C(C)=O)C2` (stereo not shown) [Substance B, 2-acetyl-1,2,3,4-tetrahydro-6-(2-hydroxy-3-isopropylamino-propoxy)-7-methoxy-isoquinoline]: the “Heart: Blood vessels” value in data set [1] was determined as 1.8. Moreover, in data set [2], the “dosage relationships in comparison with the comparison compound” value is “essentially more favorable than for the comparison compound”; the “influence of heart-active doses on the bronchial system” value was “does not lead to a negative influence on the bronchial system”; the “Heart: Bronchial System” value is greater than 7.2.

As usually defined, the LD50 is the dose expected to kill half of the subjects tested. High values mean lower toxicity, low ones greater toxicity. Turning to `CC(C)NCC(O)COc1cccc2c1CCN(C=O)C2` (stereo not shown) [Substance C, 2-formyl-1,2,3,4-tetrahydro-5-(2-hydroxy-3-isopropylamino-propoxy)-isoquinoline], in the data set on albino mice, the “toxicity and activity in comparison with E, F, and G” value is “less toxic at higher activity”. This compound also showed an LD50 in the data set “in vivo” of 148 mg/kg.

On to `CC(C)(C)NCC(O)COc1cccc2c1CCN(C=O)C2` (stereo not shown) [Substance D, 2-formyl-1,2,3,4-tetrahydro-5-(2-hydroxy-3-tert.-butylaminopropoxy)-isoquinoline], for which the “toxicity and activity in comparison with E, F, and G” value in the data set with albino mice is given as “less toxic at higher activity”. This compound returned an LD50 in “in vivo” of 128 mg/kg.

Take `CC(C)NCC(O)COc1cccc2[nH]ccc12` (stereo not shown) [Substance E, prindolol, reference compound]: the LD50 in “in vivo” stood at 22.6 mg/kg.

In the case of `CC(C)NCC(O)COc1cccc2ccccc12` (stereo not shown) [Substance F, propranolol, reference compound], the “Heart: Blood vessels” value in data set [1] is given as 1. Further, the “Heart: Bronchial System” value in data set [2] is 0.15.

With `CC(=O)Nc1ccc(OCC(O)CNC(C)C)cc1` (stereo not shown) [Substance G, practolol, reference compound], the LD50 in the data set “in vivo” was determined as 121 mg/kg.
